biological target: T1, MLK-7 (Homo sapiens, UniProt Q9NYL2); test: In vitro assay of purified MLK-7 kinase activity (33P transfer from ATP to myelin basic protein); format: biochemical; settings: recombinant GST-tagged MLK-7 at 1 nm, 30 uM ATP, 5 uM MBP substrate, 2 hours room temperature; read-out: MLK7 IC50
T1 construct: GST; His tag; made in house; host or cells: Sf9 insect cells (baculovirus, pVL1392)
Excerpt: In Vitro Assay of Purified Mixed Lineage Kinase 7 (MLK-7) Activity:
Briefly, recombinant glutathione-s-transferase (GST) tagged MLK-7 is expressed in Sf9 cells using a recombinant baculovirus created using baculovirus transfer vector pVL1392 modified to contain a GST and histidine tag. The recombinant protein is purified over a glutathione column and subsequently used for in vitro kinase assays with myelin basic protein (MBP) as the substrate for phosphorylation. The in vitro kinase reaction is run with recombinant MLK-7 at 1 nm and various concentrations of test compound in a reaction mixture containing 2 mM DTT, 30 uM ATP, 5 mM MgCl2, 5 uM MBP, 4% DMSO, 5 uCi 33P in 44 mM HEPES, (pH 7.4). The reaction is carried out for 2 hours at room temperature and then stopped by the addition of phosphoric acid to 5.5%. The phosphorylated MBP is collected on a filter and radioactivity associated with the membrane measured using a scintillation counter. Inhibitors are identified by the ability to reduce the transfer of radioactive phosphate from ATP to MBP compared to controls run without test compound.
IC50 values, defined as the concentration of test compound required to decrease the transfer of radioactive phosphate from ATP to MBP by 50%, are then determined. Ki values (which refers to the dissociation constant of an enzyme-antagonist complex and serves as an index of ligand binding) for each respective test compound can also be calculated by application of the Cheng-Prusoff equation as described in Cheng et al., Relationship Between The Inhibition Constant (Ki) and The Concentration of Inhibitor Which Causes 50% Inhibition (IC50) of an Enzymatic Reaction, Biochem. Pharmacol., 22: […]; (1973).
Representative compounds of the present invention have an IC50 in the MLK-7 kinase assay of ≦10,000 nM Table I (see infra.) provides IC50 data from the afore mentioned MLK-7 kinase assay for a representative sample of the exemplified compounds of the present invention.

“2-[4-(2-Pyridin-2-yl-5,6-dihydro-4H-pyrrolo[1,2-b]pyrazol-3-yl)quinolin-7-yl]phenyl}benzamide Trifluoroacetic Acid [Example 29]” and “4-[4-(2-Pyridin-2-yl-5,6-dihydro-4H-pyrrolo[1,2-b]pyrazol-3-yl]phenylamine Ditrifluoroacetic Acid [Example 10]” cannot be ordered by IC50: ≤ 10000 nM for the first, ≤ 100 nM for the second.

“5-[4-(2-pyridin-2-yl-5,6-dihydro-4H-pyrrolo[1,2-b]pyrazol-3-yl)-7-pyrimidin-5-yl-quinolin-7-yl]pyrimidin-2-ylamine Difluoroacetic Acid [Example 89]” and “7-(3,5-Dichlorophenyl)-4-(2-Pyridin-2-yl-5,6-dihydro-4H-pyrrolo[1,2-b]pyrazol-3-yl)quinoline Trifluoroacetic Acid [Example 31]” cannot be ordered by IC50: ≤ 1000 nM for the first, ≤ 1000 nM for the second.

“7-(3-Nitrophenyl)-4-(2-pyridin-2-yl-5,6-dihydro-4H-pyrrolo[1,2-b]pyrazol-3-yl)quinoline Trifluoroacetic Acid [Example 49]” and “7-(4-Benzo[b]thiophen-3-yl-phenyl)-4-(2-pyridin-2-yl-5,6-dihydro-4H-pyrrolo[1,2-b]pyrazol-3-yl)-quinoline Trifluoroacetic Acid [Example 54]” cannot be ordered by IC50: ≤ 100 nM for the first, ≤ 1000 nM for the second.

“7-(4-Methyl-3-nitro-phenyl)-4-(2-pyridin-2-yl-5,6-dihydro-4H-pyrrolo[1,2-b]pyrazol-3-yl)-quinoline Trifluoroacetic Acid [Example 52]” and `CC(C)(C)SCCNC(=O)c1ccc(-c2ccc3c(-c4c(-c5ccccn5)nn5c4CCC5)ccnc3c2)cc1` (racemic) [Example 127, (rac) N-(2-tert-Butylsulfanyl-ethyl)-4-[4-(2-pyridin-2-yl-5,6-dihydro-4H-pyrrolo[1,2-b]pyrazol-3-yl)-quinolin-7-yl]-benzamide] cannot be ordered by IC50: ≤ 100 nM for the first, ≤ 1000 nM for the second.

`O=C(NC1CCS(=O)(=O)C1)c1ccc(-c2ccc3c(-c4c(-c5ccccn5)nn5c4CCC5)ccnc3c2)cc1` (racemic) [Example 129, (rac)-N-(1,1-Dioxo-tetrahydro-1λ^6-thiophen-3-yl)-4-[4-(2-pyridin-2-yl-5,6-dihydro-4H-pyrrolo[1,2-b]pyrazol-3-yl)-quinolin-7-yl]-benzamide] and `Cc1csc(-c2ccc3c(-c4c(-c5ccccn5)nn5c4CCC5)ccnc3c2)c1` [Example 2, 7-(4-methylthiophen-2-yl)-4-(2-pyridin-2-yl-5,6-dihydro-4H-pyrrolo[1,2-b]pyrazol-3-yl)quinoline Trifluoroacetic Acid] cannot be ordered by IC50: ≤ 100 nM for the first, ≤ 100 nM for the second.

`CC(=O)Nc1ccc(-c2ccc3c(-c4c(-c5ccccn5)nn5c4CCC5)ccnc3c2)cc1` [Example 3] and `c1ccc(-c2ccc3c(-c4c(-c5ccccn5)nn5c4CCC5)ccnc3c2)cc1` [Example 4, 7-Phenyl-4-(2-pyridin-2-yl-5,6-dihydro-4H-pyrrolo[1,2-b]pyrazol-3-yl)quinoline Trifluoroacetic Acid] cannot be ordered by IC50: ≤ 100 nM for the first, ≤ 100 nM for the second.

`Oc1ccccc1-c1ccc2c(-c3c(-c4ccccn4)nn4c3CCC4)ccnc2c1` [Example 5] and `Oc1cccc(-c2ccc3c(-c4c(-c5ccccn5)nn5c4CCC5)ccnc3c2)c1` [Example 6, 3-[4-(2-Pyridin-2-yl-5,6-dihydro-4H-pyrrolo[1,2-b]pyrazol-3-yl)quinolin-7-yl]phenol Trifluoroacetic Acid] cannot be ordered by IC50: ≤ 1000 nM for the first, ≤ 100 nM for the second.

`Oc1ccc(-c2ccc3c(-c4c(-c5ccccn5)nn5c4CCC5)ccnc3c2)cc1` [Example 7, 4-[4-(2-Pyridin-2-yl-5,6-dihydro-4H-pyrrolo[1,2-b]pyrazol-3-yl)quinolin-7-yl]phenol Trifluoroacetic Acid] and `Nc1ccccc1-c1ccc2c(-c3c(-c4ccccn4)nn4c3CCC4)ccnc2c1` [Example 8, 2-[4-(2-Pyridin-2-yl-5,6-dihydro-4H-pyrrolo[1,2-b]pyrazol-3-yl)quinolin-7-yl]phenylamine Ditrifluoroacetic Acid] cannot be ordered by IC50: ≤ 100 nM for the first, ≤ 1000 nM for the second.

`Nc1cccc(-c2ccc3c(-c4c(-c5ccccn5)nn5c4CCC5)ccnc3c2)c1` [Example 9] and `Clc1cccc(-c2ccc3c(-c4c(-c5ccccn5)nn5c4CCC5)ccnc3c2)c1` [Example 11, 7-(3-Chlorophenyl)-4-(2-Pyridin-2-yl-5,6-dihydro-4H-pyrrolo[1,2-b]pyrazol-3-yl)quinoline Trifluoroacetic Acid] cannot be ordered by IC50: ≤ 100 nM for the first, ≤ 100 nM for the second.

`Clc1ccc(-c2ccc3c(-c4c(-c5ccccn5)nn5c4CCC5)ccnc3c2)cc1` [Example 12, 7-(4-Chlorophenyl)-4-(2-pyridin-2-yl-5,6-dihydro-4H-pyrrolo[1,2-b]pyrazol-3-yl)quinoline Trifluoroacetic Acid] and `O=[N+]([O-])c1ccc(-c2ccc3c(-c4c(-c5ccccn5)nn5c4CCC5)ccnc3c2)cc1` [Example 14, 7-(4-Nitrophenyl)-4-(2-pyridin-2-yl-5,6-dihydro-4H-pyrrolo[1,2-b]pyrazol-3-yl)quinoline Trifluoroacetic Acid] cannot be ordered by IC50: ≤ 100 nM for the first, ≤ 100 nM for the second.

`CS(=O)(=O)Nc1cccc(-c2ccc3c(-c4c(-c5ccccn5)nn5c4CCC5)ccnc3c2)c1` [Example 15, N-{3-[4-(2-Pyridin-2-yl-5,6-dihydro-4H-pyrrolo[1,2-b]pyrazol-3-yl)-quinolin-7-yl]-phenyl}methanesulfomamide Trifluoroacetic Acid] and `CS(=O)(=O)Nc1ccc(-c2ccc3c(-c4c(-c5ccccn5)nn5c4CCC5)ccnc3c2)cc1` [Example 16, N-{4-[4-(2-Pyridin-2-yl-5,6-dihydro-4H-pyrrolo[1,2-b]pyrazol-3-yl)quinolin-7-yl]phenyl}methanesulfonamide Trifluoroacetic Acid] cannot be ordered by IC50: ≤ 100 nM for the first, ≤ 100 nM for the second.

`CCOc1ccccc1-c1ccc2c(-c3c(-c4ccccn4)nn4c3CCC4)ccnc2c1` [Example 17, 7-(2-Ethoxyphenyl)-4-(2-pyridin-2-yl-5,6-dihydro-4H-pyrrolo[1,2-b]pyrazol-3-yl)quinoline Trifluoroacetic Acid] and `CCOc1cccc(-c2ccc3c(-c4c(-c5ccccn5)nn5c4CCC5)ccnc3c2)c1` [Example 18, 7-(3-Ethoxyphenyl)-4-(2-pyridin-2-yl-5,6-dihydro-4H-pyrrolo[1,2-b]pyrazol-3-yl)quinoline Trifluoroacetic Acid] cannot be ordered by IC50: ≤ 10000 nM for the first, ≤ 100 nM for the second.

`CCOc1ccc(-c2ccc3c(-c4c(-c5ccccn5)nn5c4CCC5)ccnc3c2)cc1` [Example 19, 7-(4-Ethoxyphenyl)-4-(2-pyridin-2-yl-5,6-dihydro-4H-pyrrolo[1,2-b]pyrazol-3-yl)quinoline Trifluoroacetic Acid] and `COc1ccc(-c2ccc3c(-c4c(-c5ccccn5)nn5c4CCC5)ccnc3c2)cc1` [Example 20, 7-(4-Methoxyphenyl)-4-(2-pyridin-2-yl-5,6-dihydro-4H-pyrrolo[1,2-b]pyrazol-3-yl)quinoline Trifluoroacetic Acid] cannot be ordered by IC50: ≤ 100 nM for the first, ≤ 100 nM for the second.

`Cc1cc(-c2ccc3c(-c4c(-c5ccccn5)nn5c4CCC5)ccnc3c2)ccc1F` [Example 21, 7-(4-Fluoro-3-methylphenyl)-4-(2-pyridin-2-yl-5,5-dihydro-4H-pyrrolo[1,2-b]pyrazol-3-yl)quinoline Trifluoroacetic Acid] and `Cc1cc(F)ccc1-c1ccc2c(-c3c(-c4ccccn4)nn4c3CCC4)ccnc2c1` [Example 22, 7-(4-Fluoro-2-methylphenyl)-4-(2-pyridin-2-yl-5,6-dihydro-4H-pyrrolo[1,2-b]pyrazol-3-yl)quinoline Trifluoroacetic Acid] cannot be ordered by IC50: ≤ 1000 nM for the first, ≤ 1000 nM for the second.

`Brc1ccc(-c2ccc3c(-c4c(-c5ccccn5)nn5c4CCC5)ccnc3c2)cc1` [Example 23, 7-(4-Bromophenyl)-4-(2-pyridin-2-yl-5,6-dihydro-4H-pyrrolo[1,2-b]pyrazol-3-yl)quinoline Trifluoroacetic Acid] and `CCSc1ccc(-c2ccc3c(-c4c(-c5ccccn5)nn5c4CCC5)ccnc3c2)cc1` [Example 24, 7-(4-Ethylsulfanylphenyl)-4-(2-pyridin-2-yl-5,6-dihydro-4H-pyrrolo[1,2-b]pyrazol-3-yl)quinoline Trifluoroacetic Acid] cannot be ordered by IC50: ≤ 100 nM for the first, ≤ 1000 nM for the second.

`CSc1ccc(-c2ccc3c(-c4c(-c5ccccn5)nn5c4CCC5)ccnc3c2)cc1` [Example 25, 7-(4-Methylsulfanylphenyl)-4-(2-pyridin-2-yl-5,6-dihydro-4H-pyrrolo[1,2-b]pyrazol-3-yl)quinoline Trifluoroacetic Acid] and `N#Cc1ccc(-c2ccc3c(-c4c(-c5ccccn5)nn5c4CCC5)ccnc3c2)cc1` [Example 26, 4-[4-(2-Pyridin-2-yl-5,6-dihydro-4H-pyrrolo[1,2-b]pyrazol-3-yl)quinolin-7-yl]benzonitrile Trifluroacetic Acid] cannot be ordered by IC50: ≤ 1000 nM for the first, ≤ 100 nM for the second.

Reference: US7511065B2, “Mixed lineage kinase modulators” (Eli Lilly and Company, priority 2002, dated 2009)
